Test results published in paper PMC4584933, “Establishing the pig as a large animal model for vaccine development against human cancer” (Frontiers in Genetics, 2015).

How the values were obtained:
SLA-1*04:01 = assay: Peptide-MHC class I complex stability, scintillation proximity assay (SPA); design: species or system pig; settings: biotinylated recombinant SLA heavy chain, 125I-β2m, excess unlabeled β2m, read every 40 min, number only if t1/2 ≥ 0.5 h, '-' = not stably binding
Method in brief: (§1)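 Biotinylated recombinant heavy chains captured on streptavidin scintillation plates with 125I-β2m and peptide; signal read every 40 min under dissociating conditions with excess unlabeled β2m. Signal duration gives complex half-life; ≥ 0.5 h counted as stable binder.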

SLA-2*04:01 = assay: as above; design: species or system pig; settings: biotinylated recombinant SLA heavy chain, 125I-β2m, excess unlabeled β2m, read every 40 min, number only if t1/2 ≥ 0.5 h, '-' = not stably binding
Method in brief: as §1

SLA-1*07:02 = assay: as above; design: species or system pig; settings: biotinylated recombinant SLA heavy chain, 125I-β2m, excess unlabeled β2m, read every 40 min, number only if t1/2 ≥ 0.5 h, '-' = not stably binding
Method in brief: as §1

PBMCs = assay: In vitro peptide stimulation of porcine PBMCs, IFN-γ release assay (ELISA); type: cell-based, pig; design: key to T cell response: “x” indicates that a response was found to this given peptide at least once; settings: PBMCs of immunized pigs, 2 × 10^5/well, 5 μg/ml peptide, 67.5–70.0 h, IFN-γ ELISA; response = 2-fold increase vs day -2 and at least 25 pg/ml IFN-γ, found at least once; SLA restriction not included
SLA-3*04:01 = assay: Peptide-MHC class I complex stability, scintillation proximity assay (SPA); design: species or system pig; settings: biotinylated recombinant SLA heavy chain, 125I-β2m, excess unlabeled β2m, read every 40 min, number only if t1/2 ≥ 0.5 h, '-' = not stably binding
Method in brief: as §1

Sequence	Binder (t1/2 ≥ 0.5 h): half-life of peptide-SLA-1*04:01 complex (SLA-1*04:01)	Binder (t1/2 ≥ 0.5 h): half-life of peptide-SLA-2*04:01 complex (SLA-2*04:01)	T cell response (PBMCs)	also measured
AIAKNLPEL [IDO2, porcine IDO-derived 9-11mer peptide]	- (t1/2 (hours) is listed for each of the stably binding peptides (t1/2 ≥ 0.5 h))	–	–	–
ALEVFHQIHEY [IDO4, porcine IDO-derived 9-11mer peptide]	- (t1/2 (hours) is listed for each of the stably binding peptides (t1/2 ≥ 0.5 h))	–	–	–
ASAIKVIPTLF [IDO8, porcine IDO-derived 9-11mer peptide]	- (t1/2 (hours) is listed for each of the stably binding peptides (t1/2 ≥ 0.5 h))	- (t1/2 (hours) is listed for each of the stably binding peptides (t1/2 ≥ 0.5 h))	–	–
DMANRISAFGY [RhoC8, porcine RhoC-derived 9-11mer peptide]	–	1.1 h	x	Binder (t1/2 ≥ 0.5 h): half-life of peptide-SLA-1*07:02 complex (SLA-1*07:02): - (t1/2 (hours) is listed for each of the stably binding peptides (t1/2 ≥ 0.5 h))
DTDVILMCF [RhoC10, porcine RhoC-derived 9-11mer peptide]	1.3 h	–	–	–
DYDRLRPLSY [RhoC13, porcine RhoC-derived 9-11mer peptide]	- (t1/2 (hours) is listed for each of the stably binding peptides (t1/2 ≥ 0.5 h))	–	–	–
EDYDRLRPLSY [RhoC14, porcine RhoC-derived 9-11mer peptide]	- (t1/2 (hours) is listed for each of the stably binding peptides (t1/2 ≥ 0.5 h))	- (t1/2 (hours) is listed for each of the stably binding peptides (t1/2 ≥ 0.5 h))	–	–
EVDGKQVEL [RhoC21, porcine RhoC-derived 9-11mer peptide]	- (t1/2 (hours) is listed for each of the stably binding peptides (t1/2 ≥ 0.5 h))	–	–	–
EVDGKQVELAL [RhoC22, porcine RhoC-derived 9-11mer peptide]	0.6 h	–	–	–
EVFHQIHEY [IDO21, porcine IDO-derived 9-11mer peptide]	–	23.8 h	x	Binder (t1/2 ≥ 0.5 h): half-life of peptide-SLA-1*07:02 complex (SLA-1*07:02): 10.1 h
GSAAQSSIF [IDO33, porcine IDO-derived 9-11mer peptide]	- (t1/2 (hours) is listed for each of the stably binding peptides (t1/2 ≥ 0.5 h))	- (t1/2 (hours) is listed for each of the stably binding peptides (t1/2 ≥ 0.5 h))	–	–
GVPSGSAAGF [IDO34, porcine IDO-derived 9-11mer peptide]	- (t1/2 (hours) is listed for each of the stably binding peptides (t1/2 ≥ 0.5 h))	–	–	–
HIDEDLGFAL [IDO35, porcine IDO-derived 9-11mer peptide]	- (t1/2 (hours) is listed for each of the stably binding peptides (t1/2 ≥ 0.5 h))	–	–	–
KGDALLQETY [IDO48, porcine IDO-derived 9-11mer peptide]	0.7 h	- (t1/2 (hours) is listed for each of the stably binding peptides (t1/2 ≥ 0.5 h))	x	–
KKDPSGPMTY [IDO51, porcine IDO-derived 9-11mer peptide]	- (t1/2 (hours) is listed for each of the stably binding peptides (t1/2 ≥ 0.5 h))	–	–	–
KLFFNVLRIY [IDO53, porcine IDO-derived 9-11mer peptide]	–	–	–	Binder (t1/2 ≥ 0.5 h): half-life of peptide-SLA-3*04:01 complex (SLA-3*04:01): - (t1/2 (hours) is listed for each of the stably binding peptides (t1/2 ≥ 0.5 h)); Binder (t1/2 ≥ 0.5 h): half-life of peptide-SLA-1*07:02 complex (SLA-1*07:02): - (t1/2 (hours) is listed for each of the stably binding peptides (t1/2 ≥ 0.5 h))
LLDITSSLH [IDO67, porcine IDO-derived 9-11mer peptide]	0.7 h	–	x	–
LWDTAGQEDY [RhoC38, porcine RhoC-derived 9-11mer peptide]	- (t1/2 (hours) is listed for each of the stably binding peptides (t1/2 ≥ 0.5 h))	–	–	–
MALDWWSPM [IDO75, porcine IDO-derived 9-11mer peptide]	–	–	x	Binder (t1/2 ≥ 0.5 h): half-life of peptide-SLA-3*04:01 complex (SLA-3*04:01): - (t1/2 (hours) is listed for each of the stably binding peptides (t1/2 ≥ 0.5 h)); Binder (t1/2 ≥ 0.5 h): half-life of peptide-SLA-1*07:02 complex (SLA-1*07:02): 0.5 h
MQRLAHLVLGY [IDO79, porcine IDO-derived 9-11mer peptide]	–	- (t1/2 (hours) is listed for each of the stably binding peptides (t1/2 ≥ 0.5 h))	–	Binder (t1/2 ≥ 0.5 h): half-life of peptide-SLA-3*04:01 complex (SLA-3*04:01): - (t1/2 (hours) is listed for each of the stably binding peptides (t1/2 ≥ 0.5 h)); Binder (t1/2 ≥ 0.5 h): half-life of peptide-SLA-1*07:02 complex (SLA-1*07:02): - (t1/2 (hours) is listed for each of the stably binding peptides (t1/2 ≥ 0.5 h))
MVSLRNYHL [IDO83, porcine IDO-derived 9-11mer peptide]	- (t1/2 (hours) is listed for each of the stably binding peptides (t1/2 ≥ 0.5 h))	–	–	–

Sequence	Binder (t1/2 ≥ 0.5 h): half-life of peptide-SLA-1*04:01 complex (SLA-1*04:01)	Binder (t1/2 ≥ 0.5 h): half-life of peptide-SLA-2*04:01 complex (SLA-2*04:01)	T cell response (PBMCs)	also measured
NMDILFSFP [IDO85, porcine IDO-derived 9-11mer peptide]	0.8 h	–	x	–
PLEELPHPY [IDO94, porcine IDO-derived 9-11mer peptide]	- (t1/2 (hours) is listed for each of the stably binding peptides (t1/2 ≥ 0.5 h))	–	–	–
PMDNSWKIF [IDO96, porcine IDO-derived 9-11mer peptide]	0.7 h	–	–	–
RGTGGTNVIDF [IDO103, porcine IDO-derived 9-11mer peptide]	- (t1/2 (hours) is listed for each of the stably binding peptides (t1/2 ≥ 0.5 h))	–	–	–
RISAFGYLE [RhoC43, porcine RhoC-derived 9-11mer peptide]	- (t1/2 (hours) is listed for each of the stably binding peptides (t1/2 ≥ 0.5 h))	–	–	–
SAAQSSIFQCF [IDO122, porcine IDO-derived 9-11mer peptide]	30.2 h	- (t1/2 (hours) is listed for each of the stably binding peptides (t1/2 ≥ 0.5 h))	x	–
SIDGLQGHKM [IDO115, porcine IDO-derived 9-11mer peptide]	- (t1/2 (hours) is listed for each of the stably binding peptides (t1/2 ≥ 0.5 h))	–	–	–
SIDSPDSLENI [RhoC47, porcine RhoC-derived 9-11mer peptide]	- (t1/2 (hours) is listed for each of the stably binding peptides (t1/2 ≥ 0.5 h))	–	–	–
SKDQFPEVY [RhoC48, porcine RhoC-derived 9-11mer peptide]	- (t1/2 (hours) is listed for each of the stably binding peptides (t1/2 ≥ 0.5 h))	- (t1/2 (hours) is listed for each of the stably binding peptides (t1/2 ≥ 0.5 h))	–	–
SLENIPEKW [RhoC49, porcine RhoC-derived 9-11mer peptide]	- (t1/2 (hours) is listed for each of the stably binding peptides (t1/2 ≥ 0.5 h))	- (t1/2 (hours) is listed for each of the stably binding peptides (t1/2 ≥ 0.5 h))	–	–
SLENIPEKWTP [RhoC50, porcine RhoC-derived 9-11mer peptide]	- (t1/2 (hours) is listed for each of the stably binding peptides (t1/2 ≥ 0.5 h))	–	–	–
SLESGPSVREF [IDO116, porcine IDO-derived 9-11mer peptide]	0.8 h	–	x	–
SPMDNSWKI [IDO119, porcine IDO-derived 9-11mer peptide]	–	–	x	Binder (t1/2 ≥ 0.5 h): half-life of peptide-SLA-1*07:02 complex (SLA-1*07:02): 1.9 h
SPMDNSWKIF [IDO120, porcine IDO-derived 9-11mer peptide]	–	–	x	Binder (t1/2 ≥ 0.5 h): half-life of peptide-SLA-1*07:02 complex (SLA-1*07:02): 2.6 h
TSSLHKALEVF [IDO123, porcine IDO-derived 9-11mer peptide]	- (t1/2 (hours) is listed for each of the stably binding peptides (t1/2 ≥ 0.5 h))	- (t1/2 (hours) is listed for each of the stably binding peptides (t1/2 ≥ 0.5 h))	–	–
VQAMVSLRNY [IDO129, porcine IDO-derived 9-11mer peptide]	1.2 h	- (t1/2 (hours) is listed for each of the stably binding peptides (t1/2 ≥ 0.5 h))	x	–
YADCVLANW [IDO133, porcine IDO-derived 9-11mer peptide]	5.4 h	1.7 h	x	–
YPDTDVILM [RhoC58, porcine RhoC-derived 9-11mer peptide]	–	–	x	Binder (t1/2 ≥ 0.5 h): half-life of peptide-SLA-1*07:02 complex (SLA-1*07:02): 1.2 h
YVDPKLFFNV [IDO135, porcine IDO-derived 9-11mer peptide]	- (t1/2 (hours) is listed for each of the stably binding peptides (t1/2 ≥ 0.5 h))	–	–	–
YVDPKLFFNVL [IDO136, porcine IDO-derived 9-11mer peptide]	- (t1/2 (hours) is listed for each of the stably binding peptides (t1/2 ≥ 0.5 h))	–	–	–
